Reference: patent US9556169B2, “Compounds and compositions for the treatment of parasitic diseases” (NOVARTIS AG, priority 2012, dated 2017)
Like-named read-outs stand apart in the source and are kept apart here.

What was measured:
[1] = tested on: Plasmodium yoelii (17XNL) sporozoites; assay: Liver stage P. yoelii sporozoite invasion assay in HepG2-A16-CD81EGFP cells; format: cell-based
Excerpt: Assay for Proliferation of Parasite in Infected Liver Cells
Compounds of the invention can be assayed to measure their capacity to inhibit proliferation of parasites in liver cells. The proliferation is quantified by determine the number of infected cells by immunofluorescence.
Due to the difficulty of successfully infecting immortalized human liver cell lines with the human malaria sporozoites (liver-stage parasite), rodent malaria sporozoites from Plasmodium yoelii (17XNL) and P. berghei (ANKA) are the preferred surrogate. Sporozoites are obtained from Anopheles stephensi mosquitoes supplied by the New York University Insectary, which ships the malaria-infected mosquitoes 10-13 days following the ingestion of an infective blood meal.
A transgenic HepG2 cell line expressing the tetraspanin CD81 receptor (HepG2-A16-CD81^EGFP) is used to increase the infectivity rate of rodent-malaria sporozoites into human cells. HepG2-A16-CD81^EGFP cells are stably transformed to express a GFP-CD81 fusion protein. A continuous in vitro culture of this line was maintained at 37° C. in 4% CO2 in complete media (CM) which contains: DMEM (Invitrogen, Carlsbad, USA) supplemented with 10% FCS, 0.29 mg/ml glutamine, 100 units penicillin and 100 μg/ml streptomycin (SigmaAldrich, USA).
Liver Stage P. yoelii Sporozoite Invasion Assay
Twenty to twenty-six hours prior to sporozoite infection, 7.5×10^3 HepG2-A16-CD81^EGFP cells are seeded into 384-well plates (Aurora 384 IQ-EB black plates with clear bottoms; 50 μl of 1.5×10^5 cells/ml in CM). These plates are incubated at 37° C. with 4% CO2 overnight. Two hours prior to infection, 50 nl of compound dissolved in DMSO (0.1% final DMSO concentration per well) were transferred with a PinTool (GNF Systems) into the assay plates (10 μM final concentration). A 1:3 serial dilution of atovaquone (10 μM at the highest final concentration) and wells treated only with DMSO were used as positive and negative controls, respectively.
Freshly dissected salivary glands from infected mosquitoes were homogenized in a glass tissue grinder, filtered twice through Nylon cell strainers (40 μm pore size, BD Falcon) and counted using a hemocytometer. The assay plate with HepG2-A16-CD81^EGFP cells and compound were then infected with 8×10^3 sporozoitesper well and the plates are subjected to a centrifugal force of 650×g to pellet the sporozoites onto the liver cell monolayer. The assay plate is incubated at 37° C. for 2 hours to permit sporozoite invasion, then the media is aspirated from the media plate, and replaced with 50 μl CM (containing a 5× concentration of penicillin/streptomycin; 500 units penicillin and 0.5 mg streptomycin per ml) per well. 50 nl of compound is re-introduced by PinTool and the assay plate incubated for 48 hours at 37° C. before quantification of infected cells by immunofluorescence.
Atovaquone and uninfected wells were used as controls on each plate. Two replicate plates are tested for each assay.
After fixing the cells by addition of 12.5 μl of 20% solution of paraformaldehyde (EMS, Hatfield, USA) to each assay well (4% final formaldehyde concentration), membranes were permeabilized with 0.5% Triton-X-100 (Thermo Fisher Scientific) and EEFs were stained using a mouse polyclonal serum raised against the Plasmodium yoelii heat shock protein 70 (PyHSP70), a DyLight 649 goat anti-mouse IgG, Fc(gamma) fragment specific secondary antibody (Jackson Immuno Research, Cat#115-495-071) and the Hoechst 33342 nucleic acid dye (Invitrogen, Carlsbad, USA). Stained EEFs were then quantified using the Opera Confocal High Content Screening System (Perkin Elmer, Waltham, USA). Images were collected using a 20× objective lens (20×/0.45 NA, LWD Plan Fluor, Olympus) at a binning of 2, using a 365 nm Xeon arc lamp illumination to detect the Hoechst-labeled nuclei and 635 nm laser line to excite DyLight649-labeled parasites. The image resolution yielded was approximately 0.66 μm/pixel (˜0.43 μm 2/pixel). […]

[2] = tested on: P. falciparum (NF54 or 3D7 strain); assay: P. falciparum proliferation assay in infected human blood cells (SYBR Green); format: cell-based; conditions: Plasmodium falciparum
Procedure, shortened: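 Asexual NF54 or 3D7 parasites in O+ human erythrocytes (final 2.5% hematocrit, 0.3% parasitemia) exposed to compound for 72 h at 37 °C under 93% N2/4% CO2/3% O2. Lysis with SYBR Green I overnight at rt; fluorescence (ex 425/em 530 nm) tracks parasite DNA, giving EC50.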

[3] = values without * in Table 2, HepG2-A16-CD81EGFP liver cells, 48 hours, immunofluorescence, read-out: EC50 (nM), P. yoelii Sporozoite Invasion Assay
[4] = Erythrocyte, infected human erythrocytes, 72 hours, SYBR Green fluorescence, read-out: EC50 (nM), inhibitory efficacy in delaying P. falciparum proliferation in infected human blood cells

| SMILES | EC50 [1, 3] [nM] | EC50 [2, 4] [nM] | EC50 ([1]; read-out: EC50, P. yoelii Sporozoite Invasion Assay) [nM] | EC50 ([2]; read-out: EC50, P. falciparum Proliferation Assay) [nM] |
| --- | --- | --- | --- | --- |
| CN(C(=O)c1ccn2ncc(-c3cnc(Cl)c(NS(C)(=O)=O)c3)c2c1)c1ccc(C#N)cn1 [Example 107, 3-(6-Chloro-5-(methylsulfonamido)pyridin-3-yl)-N-(5-cyanopyridin-2-yl)-N-methylpyrazolo[1,5-a]pyridine-5-carboxamide] | 180 | 10 | – | – |
| CN(C(=O)c1ccn2ncc(-c3ccnc(N)c3)c2c1)c1ccc(C#N)cn1 [Example 108, 3-(2-Aminopyridin-4-yl)-N-(5-cyanopyridin-2-yl)-N-methylpyrazolo[1,5-a]pyridine-5-carboxamide] | 472 | 2470 | – | – |
| CN(C(=O)c1ccn2ncc(-c3cnc(Cl)c(N)c3)c2c1)c1ccc(C#N)cn1 [Example 98, 3-(5-Amino-6-chloropyridin-3-yl)-N-(5-cyanopyridin-2-yl)-N-methylpyrazolo[1,5-a]pyridine-5-carboxamide] | 2060 | 19 | – | – |
| CNC(=O)c1ccc(-c2cnn3ccc(C(=O)N(C)c4ccc(C#N)cc4)cc23)cn1 [Example 97, N-(4-Cyanophenyl)-N-methyl-3-(6-(methylcarbamoyl)pyridin-3-yl)pyrazolo[1,5-a]pyridine-5-carboxamide] | 92 | 13 | – | – |
| CCN(C(=O)c1ccn2ncc(-c3ccc(S(=O)(=O)NC)cc3)c2c1)c1ccc(C#N)cn1 [Example 140, N-(5-cyanopyridin-2-yl)-N-ethyl-3-(4-[N-methylsulfamoyl]phenyl)pyrazolo[1,5-a]pyridine-5-carboxamide] | 84 | 199 | – | – |
| CNC(=O)c1ccc(-c2cnn3ccc(C(=O)N(C)c4ccc(C#N)cn4)cc23)cc1 [Example 75, N-(5-cyanopyridin-2-yl)-N-methyl-3-(4-(methylcarbamoyl)phenyl)pyrazolo[1,5-a]pyridine-5-carboxamide] | – | – | < 10 | < 5 |
